Data: patent EP4293019A1, “4-SUBSTITUTED (1H-BENZO[D]IMIDAZOL-2-YL)-1H-PYRAZOLES AS BUB1 INHIBITORS USEFUL FOR TREATING CANCERS” (Netherlands Translational Research Center Holding B.V., priority 2022, dated 2023)
Where a name gives a salt, the structure may show the parent alone.

Biological target: T1, hBUB1 (Homo sapiens, UniProt O43683)
T1 construct: purchased Carna Biosciences 05-187
Assay: hBUB1 kinase activity assay (biochemical fluorescence polarization assay, IMAP)
Details: BUB1/BUB3 3.26 nM, ATP 15 µM, BUB1/BUB3 substrate 75 nM; N=2, n=2
Procedure: This protocol describes how the Kinase Activity Assay was performed to determine pIC50 values of compounds of general formula (I) against hBUB1.
Assays were performed in 384-well plates (Greiner, black, flat bottom, 781076) by sequential addition (final concentrations are indicated) of inhibitor (5 µL, 0.3 nM - 1 µM or 3 nM - 10 µM), BUB1/BUB3 (5 µL, 3.26 nM, Carna Biosciences (05-187), lot: 15CBS-0644 D), ATP (5 µL, 15 µM) and BUB1/BUB3 substrate (5 µL, 75 nM, Carna Biosciences (05-187MSSU)), all as 4x working solutions. The final concentration of DMSO was 1%. Assay reactions were stopped by addition of IMAP progressive binding reagent (20 µL, 1200x diluted, Molecular Devices (R8155), lot: 3117896). Each assay included the following controls: (i) a background control (treated with vehicle instead of inhibitor and BUB1/BUB3 substrate), (ii) MIN controls (treated with 5 µM BAY1816032 (MedChem Express) as inhibitor, used as 0% BUB1 activity) and (iii) MAX controls (treated with vehicle instead of inhibitor, used as 100% BUB1 activity). All inhibitors were tested in two separate assays and all inhibitor concentrations were tested in duplicate per assay (N=2, n=2).
For each assay, assay buffer (AB) was freshly prepared and consisted of 20 mM HEPES (prepared by diluting 1 M HEPES, pH 7.2), 5 mM MgCl2, 0.01% Tween-20 and 1 mM DTT. Stocks of inhibitors (in DMSO) were diluted in AB to obtain 4x working solutions (4% DMSO) and 5 µL was added to the assay plate. BUB1/BUB3 (3.26 µM (486 µg/mL) in storage buffer) was diluted in AB to obtain 13.0 nM of which 5 µL was added to all wells of the assay plate. The assay plate was centrifuged (1 min, 200 g) and incubated at RT for 30 min. ATP (4 mM in MilliQ) was diluted in AB to obtain 60 µM of which 5 µL was added to each well. BUB1/BUB3 substrate (1 mM) was diluted in 20 mM HEPES (prepared by diluting 1 M HEPES (pH 7.2) in MilliQ) to obtain 80 µM (this solution was freshly prepared every assay) and further diluted in AB to obtain 300 nM after which 5 µL was added to each well of the assay plate except for background control wells. The assay plate was centrifuged (1 min, 200 g) and incubated at RT in the dark for 180 min. IMAP progressive binding buffer A (5x) and IMAP progressive binding buffer B (5x) were mixed in a ratio to obtain 30% buffer A and 70% buffer B, which was subsequently diluted 5x in MilliQ. IMAP progressive binding reagent was diluted 600x in aforementioned mixture of buffer A and B (to obtain a 2x working solution) of which 20 µL was added to each well of the assay plate. The assay plate was centrifuged (1 min, 200 g) and incubated at RT in the dark for 90 min. Fluorescence polarization was measured on a CLARIOstar plate reader using the following settings: (i) optic settings → excitation = F: 482-16, dichroic = F: LP 504, emission = F: 530-40, (ii) optic = top optic, (iii) speed/precision = maximum precision, (iv) focus adjustment was performed for every assay and (v) gain adjustment was done by setting the target mP value to 35 mP for one of the MIN control wells. Data was normalized between MIN and MAX controls and data was plotted using GraphPad Prism 8.0 using "Nonlinear regression (curve fit)" and "log(inhibitor) vs. normalized response - Variable slope" to determine pIC50 values.
Inhibition is indicated as pIC50 ("-" = not measured). Compounds having an activity designated as "A" provided an pIC50 ≥ 7.0 (IC50 ≤100 nM); compounds having an activity designated as "B" provided an 6.3 ≤ pIC50 < 7.0 (100 nM<IC50 ≤ 500 nM); compounds having an activity designated as "C" provided an 6.0 ≤ pIC50 < 6.3 (500 nM < IC50 ≤ 1 µM); compounds having an activity designated as "D" provided an 6.0 < pIC50 ≤ 5.0 (1 µM < IC50 ≤ 10 µM); and compounds having an activity designated as "E" provided an pIC50 < 5.0 (IC50 >10 µM).

T1 sequence (O43683 whole entry): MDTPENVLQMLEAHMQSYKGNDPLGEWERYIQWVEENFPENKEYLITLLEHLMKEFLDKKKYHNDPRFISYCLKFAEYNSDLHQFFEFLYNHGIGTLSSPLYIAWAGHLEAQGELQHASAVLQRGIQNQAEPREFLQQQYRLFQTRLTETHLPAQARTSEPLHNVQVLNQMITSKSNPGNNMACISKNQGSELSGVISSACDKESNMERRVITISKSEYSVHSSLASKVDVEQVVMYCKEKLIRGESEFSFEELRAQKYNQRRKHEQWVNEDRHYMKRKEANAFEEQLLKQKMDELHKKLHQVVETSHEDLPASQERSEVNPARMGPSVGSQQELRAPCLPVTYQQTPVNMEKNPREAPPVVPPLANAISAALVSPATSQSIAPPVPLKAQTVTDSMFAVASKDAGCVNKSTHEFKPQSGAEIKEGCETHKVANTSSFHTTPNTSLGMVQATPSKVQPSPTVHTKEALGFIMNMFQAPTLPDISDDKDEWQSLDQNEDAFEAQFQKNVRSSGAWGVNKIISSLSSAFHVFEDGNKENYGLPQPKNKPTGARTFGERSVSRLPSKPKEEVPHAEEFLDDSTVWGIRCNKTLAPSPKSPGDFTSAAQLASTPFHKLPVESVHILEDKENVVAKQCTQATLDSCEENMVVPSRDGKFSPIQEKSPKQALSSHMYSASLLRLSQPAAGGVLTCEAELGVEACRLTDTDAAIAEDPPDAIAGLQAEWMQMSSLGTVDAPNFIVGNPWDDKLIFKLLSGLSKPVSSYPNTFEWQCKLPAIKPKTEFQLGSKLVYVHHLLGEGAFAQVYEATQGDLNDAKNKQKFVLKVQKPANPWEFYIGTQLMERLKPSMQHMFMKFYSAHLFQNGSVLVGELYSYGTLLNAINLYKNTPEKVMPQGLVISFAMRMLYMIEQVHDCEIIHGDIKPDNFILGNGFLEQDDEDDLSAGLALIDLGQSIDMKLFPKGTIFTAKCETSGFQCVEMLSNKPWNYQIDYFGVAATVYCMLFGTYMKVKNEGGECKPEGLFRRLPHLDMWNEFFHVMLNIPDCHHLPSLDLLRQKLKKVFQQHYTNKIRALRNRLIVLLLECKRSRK
T1 sequence (O43684 whole entry partner): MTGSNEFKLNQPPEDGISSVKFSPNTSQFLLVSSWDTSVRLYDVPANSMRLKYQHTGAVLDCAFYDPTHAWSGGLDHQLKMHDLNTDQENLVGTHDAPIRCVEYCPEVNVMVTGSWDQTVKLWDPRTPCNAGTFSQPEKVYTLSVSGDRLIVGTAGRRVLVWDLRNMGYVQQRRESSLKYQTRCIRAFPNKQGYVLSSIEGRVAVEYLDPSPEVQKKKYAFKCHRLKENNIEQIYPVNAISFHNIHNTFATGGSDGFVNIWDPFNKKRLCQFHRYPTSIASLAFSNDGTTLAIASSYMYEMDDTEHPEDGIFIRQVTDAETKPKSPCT

SMILES | hBUB1 pIC50
c1ccc(-c2nccc(Nc3c[nH]nc3-c3nc4ccccc4[nH]3)n2)cc1 [Compound 23, N-(3-(1H-benzo[d]imidazol-2-yl)-1H-pyrazol-4-yl)-2-phenylpyrimidin-4-amine] | D (6.0 < pIC50 ≤ 5.0 (1 µM < IC50 ≤ 10 µM))
Clc1ccc(-c2nccc(Nc3c[nH]nc3-c3nc4ccccc4[nH]3)n2)cc1 [Compound 33, N-(3-(1H-Benzo[d]imidazol-2-yl)-1H-pyrazol-4-yl)-2-(4-chlorophenyl)pyrimidin-4-amine] | D (6.0 < pIC50 ≤ 5.0 (1 µM < IC50 ≤ 10 µM))
CC(C)c1cccc(-c2nccc(Nc3c[nH]nc3-c3nc4ccccc4[nH]3)n2)c1 [Compound 30, N-(3-(1H-Benzo[d]imidazol-2-yl)-1H-pyrazol-4-yl)-2-(3-isopropylphenyl)pyrimidin-4-amine] | D (6.0 < pIC50 ≤ 5.0 (1 µM < IC50 ≤ 10 µM))
c1ccc2[nH]c(-c3n[nH]cc3Nc3ccnc(-c4cccc5[nH]ncc45)n3)nc2c1 [Compound 38, N-(3-(1H-Benzo[d]imidazol-2-yl)-1H-pyrazol-4-yl)-2-(1H-indazol-4-yl)pyrimidin-4-amine] | D (6.0 < pIC50 ≤ 5.0 (1 µM < IC50 ≤ 10 µM))
Cc1ccc(-c2nccc(Nc3c[nH]nc3-c3nc4ccccc4[nH]3)n2)cc1 [Compound 32, N-(3-(1H-Benzo[d]imidazol-2-yl)-1H-pyrazol-4-yl)-2-(p-tolyl)pyrimidin-4-amine] | D (6.0 < pIC50 ≤ 5.0 (1 µM < IC50 ≤ 10 µM))
COc1ccc(-c2nccc(Nc3c[nH]nc3-c3nc4ccccc4[nH]3)n2)cc1 [Compound 34, N-(3-(1H-Benzo[d]imidazol-2-yl)-1H-pyrazol-4-yl)-2-(4-methoxyphenyl)pyrimidin-4-amine] | D (6.0 < pIC50 ≤ 5.0 (1 µM < IC50 ≤ 10 µM))
c1ccc2c(-c3nccc(Nc4c[nH]nc4-c4nc5ccccc5[nH]4)n3)cccc2c1 [Compound 36, N-(3-(1H-Benzo[d]imidazol-2-yl)-1H-pyrazol-4-yl)-2-(naphthalen-1-yl)pyrimidin-4-amine] | D (6.0 < pIC50 ≤ 5.0 (1 µM < IC50 ≤ 10 µM))
c1ccc2cc(-c3nccc(Nc4c[nH]nc4-c4nc5ccccc5[nH]4)n3)ccc2c1 [Compound 39, N-(3-(1H-Benzo[d]imidazol-2-yl)-1H-pyrazol-4-yl)-2-(naphthalen-2-yl)pyrimidin-4-amine] | D (6.0 < pIC50 ≤ 5.0 (1 µM < IC50 ≤ 10 µM))
COc1ccccc1-c1nccc(Nc2c[nH]nc2-c2nc3ccccc3[nH]2)n1 [Compound 26, N-(3-(1H-Benzo[d]imidazol-2-yl)-1H-pyrazol-4-yl)-2-(2-methoxyphenyl)pyrimidin-4-amine] | D (6.0 < pIC50 ≤ 5.0 (1 µM < IC50 ≤ 10 µM))
Cc1ccccc1-c1nccc(Nc2c[nH]nc2-c2nc3ccccc3[nH]2)n1 [Compound 24, N-(3-(1H-benzo[d]imidazol-2-yl)-1H-pyrazol-4-yl)-2-(o-tolyl)pyrimidin-4-amine] | D (6.0 < pIC50 ≤ 5.0 (1 µM < IC50 ≤ 10 µM))

Same assay, conditions: BUB1/BUB3 3.26 nM, ATP 15 µM, BUB1/BUB3 substrate 75 nM; N=2, n=2; read-out: hBUB1 pIC50 (converted)

SMILES | IC50
COc1cccc(-c2nccc(Nc3c[nH]nc3-c3nc4ccccc4[nH]3)n2)c1 [Compound 29, N-(3-(1H-Benzo[d]imidazol-2-yl)-1H-pyrazol-4-yl)-2-(3-methoxyphenyl)pyrimidin-4-amine] | 501 to 1000 nM
Clc1ccccc1Oc1nccc(Nc2c[nH]nc2-c2nc3cc(CN4CCOCC4)ccc3[nH]2)n1 [Compound 48, 2-(2-Chlorophenoxy)-N-(3-(5-(morpholinomethyl)-1H-benzo[d]imidazol-2-yl)-1H-pyrazol-4-yl)pyrimidin-4-amine] | 501 to 1000 nM
Clc1ccc(Oc2nccc(Nc3c[nH]nc3-c3nc4cc(CN5CCOCC5)ccc4[nH]3)n2)cc1 [Compound 50, 2-(4-Chlorophenoxy)-N-(3-(5-(morpholinomethyl)-1H-benzo[d]imidazol-2-yl)-1H-pyrazol-4-yl)pyrimidin-4-amine] | 501 to 1000 nM
Clc1cccc(Oc2nccc(Nc3c[nH]nc3-c3nc4cc(CN5CCOCC5)ccc4[nH]3)n2)c1 [Compound 49, 2-(3-Chlorophenoxy)-N-(3-(5-(morpholinomethyl)-1H-benzo[d]imidazol-2-yl)-1H-pyrazol-4-yl)pyrimidin-4-amine] | 501 to 1000 nM
c1csc(-c2nccc(Nc3c[nH]nc3-c3nc4cc(CN5CCOCC5)ccc4[nH]3)n2)c1 [Compound 22, N-(3-(5-(morpholinomethyl)-1H-benzo[d]imidazol-2-yl)-1H-pyrazol-4-yl)-2-(thiophen-2-yl)pyrimidin-4-amine hydrochloride] | 501 to 1000 nM
Clc1cccc(-c2nccc(Nc3c[nH]nc3-c3nc4ccccc4[nH]3)n2)c1 [Compound 28, N-(3-(1H-Benzo[d]imidazol-2-yl)-1H-pyrazol-4-yl)-2-(3-chlorophenyl)pyrimidin-4-amine] | 100 to 501 nM
c1cc(Nc2c[nH]nc2-c2nc3cc(CN4CCOCC4)ccc3[nH]2)nc(-c2ccsc2)n1 [Compound 21, N-(3-(5-(morpholinomethyl)-1H-benzo[d]imidazol-2-yl)-1H-pyrazol-4-yl)-2-(thiophen-3-yl)pyrimidin-4-amine hydrochloride] | 501 to 1000 nM
c1cnn(-c2nccc(Nc3c[nH]nc3-c3nc4cc(CN5CCOCC5)ccc4[nH]3)n2)c1 [Compound 20, N-(3-(5-(Morpholinomethyl)-1H-benzo[d]imidazol-2-yl)-1H-pyrazol-4-yl)-2-(1H-pyrazol-1-yl)pyrimidin-4-amine] | 501 to 1000 nM
c1cc(-c2nccc(Nc3c[nH]nc3-c3nc4ccccc4[nH]3)n2)c2[nH]ccc2c1 [Compound 37, N-(3-(1H-Benzo[d]imidazol-2-yl)-1H-pyrazol-4-yl)-2-(1H-indol-7-yl)pyrimidin-4-amine] | > 10000 nM
c1ccc(CCOc2nccc(Nc3c[nH]nc3-c3nc4cc(CN5CCOCC5)ccc4[nH]3)n2)cc1 [Compound 19, N-(3-(5-(morpholinomethyl)-1H-benzo[d]imidazol-2-yl)-1H-pyrazol-4-yl)-2-phenethoxypyrimidin-4-amine] | 501 to 1000 nM
C#Cc1nccc(Nc2c[nH]nc2-c2nc3cc(CN4CCOCC4)ccc3[nH]2)n1 [Compound 15, 2-ethynyl-N-(3-(5-(morpholinomethyl)-1H-benzo[d]imidazol-2-yl)-1H-pyrazol-4-yl)pyrimidin-4-amine] | 100 to 501 nM
Clc1ccccc1-c1nccc(Nc2c[nH]nc2-c2nc3ccccc3[nH]2)n1 [Compound 25, N-(3-(1H-Benzo[d]imidazol-2-yl)-1H-pyrazol-4-yl)-2-(2-chlorophenyl)pyrimidin-4-amine] | 501 to 1000 nM
Cc1cccc(-c2nccc(Nc3c[nH]nc3-c3nc4ccccc4[nH]3)n2)c1 [Compound 27, N-(3-(1H-Benzo[d]imidazol-2-yl)-1H-pyrazol-4-yl)-2-(m-tolyl)pyrimidin-4-amine] | 100 to 501 nM
